Source: patent US6235891A, “Glucocorticoid receptor agonist and decreased PP5” (South Alabama Medical Science Foundation, priority 1999, dated 2001)

System: PP5 mRNA
Test: Northern blot analysis of PP5 mRNA expression in A549 cells
Type: cell-based, human
Set-up: key to Activity class in initial screen (PP5 mRNA reduction): oligonucleotides giving a reduction of PP5 mRNA of approximately 50% or greater were considered active
Conditions: 300 nM oligonucleotide; for Percent Inhibition of PP5 mRNA: four hours, lipofectin, approximate, compared to control
Text: The oligonucleotides shown in Table 1 were designed using the Genbank sequences HSSERTHRP (Genbank accession number X92121), HSRNAPPP5 (Genbank accession number X89416) and PPP5C (Genbank accession number U25174), synthesized and tested for inhibition of PP5 mRNA expression in A549 cells using a Northern blot assay. All oligonucleotides shown in Table 1 are chimeric oligonucleotides with central 2'-deoxy "gaps," which have phosphorothioate backbones, flanked on both sides by 2'-methoxyethoxy (2'-MOE) "wings" (shown in bold), which have phosphodiester backbones. All cytosines in the 2'-MOE wings are 5-methylcytosines.
In the initial screen, A549 cells were treated with oligonucleotides at a concentration of 300 nM oligonucleotide for four hours in the presence of […] lipofectin. Results were normalized and expressed as a percent of control. The effect of each oligonucleotide on levels of PP5 mRNA, expressed as approximate percent inhibition compared to control, is shown in Table 1. In this initial screen, oligonucleotides giving a reduction of PP5 mRNA of approximately 50% or greater were considered active. […] These sequences (SEQ ID NO: 1, 2, 3, 4, 6, 7 and 12, respectively, SEQ ID Nos shown in bold in Table 1) are therefore preferred.
These oligonucleotides were tested for their ability to reduce PP5 mRNA levels in A549 cells, using oligonucleotide doses of 25 to 500 nM.
The human lung tumor cell line A549 was obtained from the American Type Culture Collection (Rockville Md.) and were grown in DMEM (Gibco BRL, Gaithersburg Md.), supplemented with 10% fetal calf. Cells were seeded on 60 mm plates. When they reached 70% confluency, they were washed with DMEM and 1 ml of DMEM containing 15 μg/ml DOTMA/DOPE (Lipofectin®, GIBCO-BRL) and oligonucleotide at desired concentration was added. Duplicate dishes were used for each treatment condition. After 4 hours of treatment at 37°, cells were washed and cultured in fresh DMEM containing 10% fetal bovine serum for an additional 17 hours. Cells were then harvested and total RNA was extracted with TRIzol Reagent (GIBCO-BRL) according to manufacturer's protocol. Total RNA (20 μg) was fractionated on a 1% agarose gel containing formaldehyde, and transferred to a DURLON-UV (Stratagene) nylon membrane. Following UV crosslinking, the filters were hybridized with the appropriate protein phosphatase probe. The ^32 P-labeled human PP cDNA probes are generated with DECAPrime® DNA Labeling Kit (Ambion) according to the manufacturer's protocol. Hybridization was performed in a hybridization solution containing 50% formamide at 42° for 16 hours. This was followed by two low stringency washes (2×SSC) at room temperature and two high stringency washes (0.1×SSC/0.5% SDS) at 55° C. Hybridization signals were visualized by autoradiography, and filters were then stripped and reprobed with a ^32 P-labeled glyceraldehyde-3-phosphate dehydrogenase (GAPDH) probe to confirm equal loading. The densities of hybridization signals were measured with the NIH Image program (ImagePC).
The cells were harvested, and total RNA was extracted with TRIzol® Reagent according to the methods of the manufacturer. Total RNA (20 μg) was fractionated on 1% agarose gels containing formaldehyde and transferred to DURLON-UV nylon membranes (Stratagene). Following UV cross-linking, the filters were hybridized with a [α^32 P]probe for human PP5. The human PP5 cDNA probe was generated from the full length coding region of PP5 and [α^32 P]-dATP was labeled with DECAprime® DNA Labeling Kit according to the manufacturer's protocol. Hybridization was performed in the presence of 50% formamide, 0.1 M Pipes, 0.8 M NaCl, 5×Denhardt's solution, 100 μg/ml denatured herring sperm DNA, 1×10^6 cpm/ml [α-^32 P]-labeled probe and 10% dextran sulfate at 42° C. for 16 hours. Following hybridization, the membrane was subjected to two low stringency washes (2×SSC) at room temperature and then two high stringency washes (0.1×SSC/0.5% SDS) at 55° C. […]

| Substance | Activity class in initial screen (PP5 mRNA reduction) | Percent Inhibition of PP5 mRNA [%] |
| --- | --- | --- |
| ISIS 14493: chimeric 2'-MOE/deoxy gap antisense oligonucleotide to human PP5, AUG; TCGCCCTCCGCCATCGCCAT, SEQ ID NO: 1 (sugars by position and backbone not given here; chimeric 2'-MOE wings with deoxy gap) | active | – |
| ISIS 14494: chimeric 2'-MOE/deoxy gap antisense oligonucleotide to human PP5, coding; TTCAGAGCTCCATCAGCCGG, SEQ ID NO: 2 (sugars by position and backbone not given here; chimeric 2'-MOE wings with deoxy gap) | active | 52 |
| ISIS 14495: chimeric 2'-MOE/deoxy gap antisense oligonucleotide to human PP5, coding; GTAGGCCAGGCTGCGGTTGC, SEQ ID NO: 3 (sugars by position and backbone not given here; chimeric 2'-MOE wings with deoxy gap) | active | 66 |
| ISIS 14496: chimeric 2'-MOE/deoxy gap antisense oligonucleotide to human PP5, coding; CCGCTGTACTCATCCTCAAT, SEQ ID NO: 4 (sugars by position and backbone not given here; chimeric 2'-MOE wings with deoxy gap) | active | 54 |
| ISIS 14497: chimeric 2'-MOE/deoxy gap antisense oligonucleotide to human PP5, coding; TCCCCACATACTGTAATCTT, SEQ ID NO: 5 (sugars by position and backbone not given here; chimeric 2'-MOE wings with deoxy gap) | – | 11 |
| ISIS 14498: chimeric 2'-MOE/deoxy gap antisense oligonucleotide to human PP5, coding; GTACTTGGCCTTCACCTCAC, SEQ ID NO: 6 (sugars by position and backbone not given here; chimeric 2'-MOE wings with deoxy gap) | active | – |
| ISIS 14499: chimeric 2'-MOE/deoxy gap antisense oligonucleotide to human PP5, coding; CCAGGTTGTTCTCTTCCAAG, SEQ ID NO: 7 (sugars by position and backbone not given here; chimeric 2'-MOE wings with deoxy gap) | active | 62 |
| ISIS 14500: chimeric 2'-MOE/deoxy gap antisense oligonucleotide to human PP5, coding; AGAGCCCTGGAGGTGGATGT, SEQ ID NO: 8 (sugars by position and backbone not given here; chimeric 2'-MOE wings with deoxy gap) | – | 41 |
| ISIS 14501: chimeric 2'-MOE/deoxy gap antisense oligonucleotide to human PP5, stop codon; CGCCCCGCCCGTCACCTCAC, SEQ ID NO: 9 (sugars by position and backbone not given here; chimeric 2'-MOE wings with deoxy gap) | – | 42 |
| ISIS 14502: chimeric 2'-MOE/deoxy gap antisense oligonucleotide to human PP5, 3' UTR; CCTACCCCCTCTGCAAACCT, SEQ ID NO: 10 (sugars by position and backbone not given here; chimeric 2'-MOE wings with deoxy gap) | – | 40 |
| ISIS 14503: chimeric 2'-MOE/deoxy gap antisense oligonucleotide to human PP5, 3' UTR; GCCCCAGCTGCTCCACCTCC, SEQ ID NO: 11 (sugars by position and backbone not given here; chimeric 2'-MOE wings with deoxy gap) | – | 27 |
